Source: ChEMBL document CHEMBL4130623, “Discovery of Highly Potent Pinanamine-Based Inhibitors against Amantadine- and Oseltamivir-Resistant Influenza A Viruses” (J Med Chem, 2018)

Key:
Assay in all cases: microbe, parasite or virus in culture
Type in all cases: functional, organism-based
Conditions in all cases: A/Guangzhou/GIRD/07/2009 (H1N1), MDCK
[1] = tested on: Influenza A virus
[2] = tested on: Influenza A virus; remark: listed apart in the source
[3] = tested on: Influenza A virus; remark: listed apart in the source
[4] = tested on: Influenza A virus; remark: listed apart in the source
[5] = tested on: Influenza A virus; remark: listed apart in the source
[6] = tested on: Influenza A virus; remark: listed apart in the source
[7] = tested on: Influenza A virus; remark: listed apart in the source
[8] = tested on: Influenza A virus; remark: listed apart in the source
[9] = tested on: Influenza A virus; remark: listed apart in the source

For `C[C@@H]1C2CC(C[C@H]1NCc1sccc1C1CC1)C2(C)C` (single isomer, unassigned), the EC50 [1] was 13.8 µM, the EC50 [2] was 25.6 µM and the EC50 [3] was greater than 43 µM. The EC50 [4] was 8.7 µM, the EC50 [5] was 0.34 µM and the EC50 [6] was greater than 43 µM. It also gave an EC50 [7] of 0.32 µM, an EC50 [8] greater than 43 µM and an EC50 [9] of 1.7 µM.
